Experimental data reported in publication PMC12305662, “Fragment-Based Development of Small Molecule Inhibitors Targeting Mycobacterium tuberculosis Cholesterol Metabolism” (Journal of Medicinal Chemistry, 2025).
Values after ≈ are worked out from the molar mass of the structure shown. Like-named read-outs stand apart in the source and are kept apart here.

Assays:
[1] = tested on: Mtb/radA reporter (DNA damage response); assay type: cell-based, Mycobacterium tuberculosis; conditions: 50–0.05 μM, days 1, 2, 4, 7
HepG2 cells = assay: HepG2 cytotoxicity assay (CellTiter Glo ATP); assay type: cell-based; conditions: ATP (RLU)
Procedure: Compounds were tested against HepG2 cells for their ability to inhibit ATP production as a measure of cytotoxicity. HepG2 cells were cultured in DMEM supplemented with 10% (v/v) FBS, Hepes, L-glutamine and glucose or galactose. Compounds were serial diluted in microtiter plates (as described above) and HepG2 cells were added at a final concentration of 20,000 cells per well. Inhibition of ATP levels was noted by adding CellTiter Glo (Promega) reagent at a 1:10 dilution and luminescence was noted after 10 min incubation at room temperature.

H37Rv Mtb = assay: Extracellular Mtb growth, MABA MIC90 (drug susceptible strain); assay type: cell-based; conditions: Mycobacterium tuberculosis

Compound: COc1ccc(CNc2ccc(Cc3ccncc3)cc2)cc1 [5m, N-(4-Methoxybenzyl)-4-(pyridin-4-ylmethyl)aniline]
- upregulation of radA reporter [1]: did not induce the upregulation
- HepG2 LD50 / IC50, galactose media (HepG2 cells; galactose-containing media, mean ± SD n = 2): 3.2 µM
- HepG2 LD50 / IC50, glucose media (HepG2 cells; standard (glucose-containing) media): > 50 µM
- MIC90 (H37Rv Mtb; 168 h, read-out: MIC90 (W1) H37Rv): 0.78 µM (≈ 0.237 µg/mL)
- MIC90 (H37Rv Mtb; 336 h, MABA 2 weeks post-compound treatment, read-out: MIC90 (W2) H37Rv): 6.25 µM (≈ 1.9 µg/mL)
